Experimental data: patent publication US20080021054A1, “COMPOSITIONS AND TREATMENTS FOR INHIBITING KINASE AND/OR HMG-COA REDUCTASE” (priority 2004, published 2008)
Values joined by “and” are separate entries in the source; they are usually repeats but may differ in a detail not shown here. Equal entries are not always repeated.

Tested on: oxazolone-induced mouse ear swelling
Assay: Model for inhibition of topical inflammation (oxazolone-induced mouse ear swelling)
Type: in vivo, BALB/c male mice
Conditions: topical to right ear, ear thickness 24 hours after oxazolone challenge
Description: Left ears were untreated. The thickness of both ears of each animal was measured with a Dyer model micrometer gauge 24 hours after oxazolone challenge, and the net increase in thickness of right ears versus left ears was calculated for each animal. Percent inhibition was calculated according to the formula: [(Iv-It)/Iv]×100, where Iv and It respectively refer to the average net increase in right ear thickness (mm) for vehicle and candidate compound treated mice.

`CC(C)n1c(/C=C/C(O)CC(O)CC(=O)O)c(-c2ccc(F)cc2)c2ccccc21` (stereo not shown) [Fluvastatin sodium] was tested, and the “% Inh.” value (dose 2 × 0.3 mg) was 28%.
With `CC(C)c1nc(N(C)S(C)(=O)=O)nc(-c2ccc(F)cc2)c1/C=C/[C@@H](O)C[C@@H](O)CC(=O)O` [Rosuvastatin sodium] the “% Inh.” value (dose 2 × 0.3 mg) was 20%.
For `CC(C)c1c(C(=O)Nc2ccccc2)c(-c2ccccc2)c(-c2ccc(F)cc2)n1CC[C@@H](O)C[C@@H](O)CC(=O)O` [Atorvastatin sodium], the “% Inh.” value (dose 2 × 0.3 mg) was 9%, the “% Inh.” value (dose 2 × 1 mg) was 31% and the “% Inh.” value (dose 2 × 2 mg) was 63%.
For `CC[C@H](C)C(=O)O[C@H]1C[C@H](O)C=C2C=C[C@H](C)[C@H](CC[C@@H](O)C[C@@H](O)CC(=O)O)[C@H]21` [Pravastatin sodium], the “% Inh.” value (dose 2 × 0.3 mg) was 24%.
In the case of `COc1ccc2c(c1)c(CC(=O)O)c(C)n2C(=O)c1ccc(Cl)cc1` [Indomethacin], the “% Inh.” value (dose 2 × 0.3 mg) is reported as 44%.
`O=C([O-])C[C@H](O)C[C@H](O)/C=C/c1c(C2CC2)nc2ccccc2c1-c1ccc(F)cc1.O=C([O-])C[C@H](O)C[C@H](O)/C=C/c1c(C2CC2)nc2ccccc2c1-c1ccc(F)cc1.[Ca+2]` [Pitavastatin calcium] was tested, and the “% Inh.” value (dose 2 × 0.3 mg) was 9% and the “% Inh.” value (dose 2 × 2 mg) was 60%.
For `CC(C)c1c(C(=O)Nc2ccccc2)c(-c2ccccc2)c(-c2ccc(F)cc2)n1CC[C@@H]1C[C@@H](O)CC(=O)O1` [Atorvastatin lactone], the “% Inh.” value (dose 2 × 0.3 mg) was 40%, the “% Inh.” value (dose 2 × 0.3 mg, listed as atorvastatin lactone) was 50% and 58% and 40% and the “% Inh.” value (dose 2 × 1 mg) was 58%. For the same compound, the “% Inh.” value (dose 2 × 2 mg) was 50%.
